Data from patent US20110173718A1, “HERBICIDE TOLERANT PLANTS” (SYNGENTA CROP PROTECTION, INC., priority 2008, published 2011).
Where “and” joins values, the source holds several entries; their conditions need not be identical. Equal entries are not always repeated.

What was measured:
[1] = test system: Arabidopsis HST transgenic tobacco plants; test: Glasshouse spray test, Arabidopsis HST transgenic tobacco; format: in vivo; conditions: for Damage % 5 DAT / Damage % 10 DAT: 10 g/ha, individual T0 lines; for % damaged: 8 DAT
Description: For example the Arabidopsis HST SEQ ID # 11 is cloned behind a double 35s CMV promoter sequence and a TMV translational enhancer sequence and in front of the 3′ terminator from the nos gene. This expression cassette is ligated into pMJB1 (described in WO98/20144) and then into pBIN19 and then transformed into Agrobacterium tuniqfaciens strains LBA4404 prior to plant transformation.
For example, the full length Arabidopsis HST seq ID # 11 is fused to the TMV translational enhancer sequence (SEQ ID #33) by overlapping PCR and, at the same time, 5′ XhoI site and a 3′KpnI site are added by PCR. Site-directed mutagenesis is performed to remove an internal XhoI site. The TMV/HPPD fusion is removed from the pBIN19 by digestion with XhoI/KpnI and is replaced by the TMV/HST fusion (SEQ ID #34). The TMV/HST fusion is now cloned behind a double 35s promoter and in front of the 3′ terminator from the nos gene. Again the modified pBIN19 vector (‘pBinAT HST’) is then transformed into Agrobacterium tumefaciens strain LBA4404.
A master plate of Agrobacterium tumefaciens containing the binary vector pBinAT HST (described above) or analogous binary vector comprising a different HST is used to inoculate 10 ml LB containing 100 mg/1 Rifampicin plus 50 mg/1 Kanamycin using a single bacterial colony. This is incubated overnight at 28° C. shaking at 200 rpm. This entire overnight culture is used to inoculate a 50 ml volume of LA (plus antibiotics). Again this is cultured overnight at 28° C. shaking at 200 rpm. The Agrobacterium cells are pelleted by centrifuging at 3000 rpm for 15 minutes then resuspended in MS medium with 30 g/1 sucrose, pH 5.9 to an OD ([…])=0.6. This suspension is dispensed in 25 ml aliquots into petri dishes.
Clonal micro-propagated tobacco shoot cultures are used to excise young (not yet fully expanded) leaves. The mid rib and outer leaf margins are removed and discarded, the remaining lamina is cut into 1 cm squares. These are transferred to the Agrobacterium suspension for 20 minutes. Explants are then removed, dabbed on sterile filter paper to remove excess suspension then transferred to NBM medium (MS medium, 30 g/1 sucrose, 1 mg/1 BAP, 0.1 mg/1 NAA, pH 5.9, solidified with 8 g/1 Plantagar), with the abaxial surface of each explant in contact with the medium. Approximately 7 explants are transferred per plate, which are then sealed then maintained in a lit incubator at 25° C., 16 hour photoperiod for 3 days.
Explants are then transferred to NBM medium containing 100 mg/1 Kanamycin plus antibiotics to prevent further growth of Agrobacterium (200 mg/1 timentin with 250 mg/1 carbenicillin). Further subculture on to this same medium is then performed every 2 weeks.
As shoots start to regenerate from the callusing leaf explants these are removed to Shoot elongation medium (MS medium, 30 g/1 sucrose, 8 g/1 Plantagar, 100 mg/1 Kanamycin, 200 mg/1 timentin, 250 mg/1 carbenicillin, pH 5.9). Stable transgenic plants readily root within 2 weeks. To provide multiple plants per event to ultimately allow more than one herbicide test per transgenic plant all rooting shoots are micropropagated to generate 3 or more rooted clones.
Putative transgenic plants that are rooting and show vigorous shoot growth on the medium incorporating Kanamycin are analysed by PCR using primers that amplified a 500 bp fragment within the Arabidopsis HST transgene.
Rooted transgenic T0 plantlets are transferred from agar and potted into 50% peat, 50% John Innes soil no 3 or, for example, MetroMix® 380 soil (Sun Gro Horticulture, Bellevue, Wash.) with slow-release fertilizer in 3 inch round or 4 inch square pots and left regularly watered to establish for 8-12 d in the glass house. Glass house conditions are about 24-27° C. day; 18-21° C. night and approximately a 14 h (or longer in UK summer) photoperiod. Humidity is ˜65% and light levels up to 2000 μmol/m^2 at bench level. […]

weeds = test: Glasshouse weed control by HST/HPPD (mesotrione) mixtures, post-emergence; format: in vivo; conditions: 14 DAT; for % damage, mesotrione alone: post-emergence, mesotrione 1 g/ha
Protocol: Weed seeds are planted out in trays containing suitable soil (for example 50% peat, 50% John Innes soil no 3) and grown in the glass house conditions under 24-27° C. day; 18-21° C. night and approximately a 14 h (or longer in UK summer) photoperiod. Humidity is ˜65% and light levels up to 2000 μmol/m^2 at bench level. Trays are sprayed with test chemicals dissolved in water with 0.2-0.25% X-77 surfactant and sprayed from a boom on a suitable track sprayer moving at about 2 mph in a suitable track sprayer (for example a DeVries spray chamber with the nozzle about 2 inches from the plant tops). Spray volume is suitably 500-1000 l/ha. Sprays are carried out both pre-emergence and over small plants at about 7-12 d post-emergence
Plants are assessed 14 DAT and herbicidal damage is scored on a scale from 0 to 100%. The HST inhibitor compound 2.30 (designated compound A in table 16 and 17), haloxydine (compound 1.1) and compound 2.13 (designated compound AE in tables 16 and 17) are sprayed at rates between 0 and 500 g/ha.

## CS(=O)(=O)c1ccc(C(=O)C2C(=O)CCCC2=O)c([N+](=O)[O-])c1 [Mesotrione, mesotrione, reference compound]
[1]; T0 line 332
  Damage % 5 DAT: 30%
  Damage % 10 DAT: 10%
[1]; T0 line 351
  Damage % 5 DAT: 50%
  Damage % 10 DAT: 25%
[1]; T0 line 367
  Damage % 5 DAT: 25%
  Damage % 10 DAT: 10%
[1]; T0 line 404
  Damage % 5 DAT: 45%
  Damage % 10 DAT: 20%
[1]; T0 line 426
  Damage % 5 DAT: 45%
  Damage % 10 DAT: 20%
[1]; Arabidopsis HST T0 tobacco events (one value per event), 15 g/ha of mesotrione, 21 DAT
  ht (herbicidal damage): 80 and 90 and 85 and 70 and 75
weeds; 1 g/ha, pre- and post-emergence sprays
  damage: < 10%
weeds; ALOMY
  % damage, mesotrione alone: 0%
weeds; ECHCG
  % damage, mesotrione alone: 8%
weeds; SETFA
  % damage, mesotrione alone: 0%

## Oc1c(Cl)c(F)nc(F)c1Cl [Compound 1.1, haloxydine]
[1]; 250 g/ha, line E9
  % damaged: 20% and 40%
[1]; 250 g/ha, line F6
  % damaged: 50% and 75%
[1]; 250 g/ha, 25 DAT, line E9
  appearance of plants: healthy and similar sized to untreated control plants
[1]; 250 g/ha, 25 DAT, line F6
  % damage: 50-70%
